What all share (format): cell-based, human
In experiment [1] the test system is CFPAC-1 cells. Put plainly: Induction of EMT by growth factors and cytokines, E-cadherin and vimentin immunoblotting. The settings on record: CFPAC-1 cells treated 7 days with ligand. The protocol:
The CFPAC1 cell line was cultured in DMEM media (Gibco #11960) supplemented with 10% FBS (Sigma), 2 mM L Glutamine (Gibco), at 37° C., 5% CO2. For 7 day treatments, cells were seeded on tissue culture plastic in complete growth media and allowed to attach overnight at cell densities that would provide approximately 60-80% confluence at end of experiment. Ligand and/or inhibitor was added the following day (Day 0) in complete growth media and incubated at 37° C., 5% CO2. Ligand source and concentrations used are as follows: [1] From R&D systems, SDF-1α (stromal derived factor-1 alpha) at 100 ng/ml, TRANCE (TNF-related activation induced cytokine) at 50 ng/ml, FGF1 (fibroblast growth factor acidic) at 10 ng/ml, FGF2 (fibroblast growth factor basic) at 10 ng/ml, BMP4 (bone morphogenetic protein 4) at 100 ng/ml, BMP7 (bone morphogenetic protein 7) at 100 ng/ml, IGF2 (insulin-like growth factor 2) at 100 ng/ml, OSM (Oncostatin M) at 100 ng/ml, NRG1 (Neuregulin-1) at 50 ng/ml, PDGFaa (Platelet derived growth factor a) at 50 ng/ml, PDGFbb (platelet derive growth factor b) at 30 ng/ml, Ang2 (Angiopoeitin 2) at 400 ng/ml, amphiregulin at 100 ng/ml, HMGB 1 (Human high-mobility group box 1 protein) at 50 ng/ml; [2] From Genscript, LIF (Leukemia inhibitory factor) at 20 ng/ml, GM-CSF (Granulocyte macrophage colony stimulating factor) at 25 ng/ml, M-CSF (Macrophage colony stimulating factor) at 50 ng/ml; [3] From Anaspec, PAR1 (Protease activated receptor 1 agonist) at 100 μM; PAR2 (Protease activated receptor 2 agonist; peptide SLIGKV-NH2, Cat. No. 60217-1) at 100 μM; PAR4 (Protease activated receptor […] agonist; peptide AYPGKF-NH2, Cat. No. 60218-1) at 100 μM; [4] From Peprotech, HGF (Hepatocyte Growth Factor) at 100 ng/ml; IL-31 (Interleukin-31) at 50 ng/ml, IL-33 (Interleukin-33) at 50 ng/ml, IL1-a (Interleukin-1 alpha) at 10 ng/ml, CTGF (Connective tissue growth factor) at 20 ng/ml, WISP1 (Wnt-1 inducible signaling pathway protein) at 20 ng/ml, PTHrP ([…] hormone-related protein) at 50 ng/ml, MCP1 (monocyte chemotactic protein-1) at 50 ng/ml; and [5] from Sigma, Fulvestrant at 1 μM. Fresh medium containing ligand and/or inhibitor was added 3-4 days after initial dose, and at Day 7 cells were harvested for western blot analysis.
Cells were harvested by washing once with PBS, and lysing on ice for 10 minutes with scraping (using a Cell Lifter, Corning Inc. #3008) in ice cold RIPA buffer (Sigma R0278) containing Protease inhibitor (Sigma P8340), Phosphatase inhibitors (Sigma P2850, P5726) and 200 μM Sodium Vanadate. Supernatents were micro-centrifuged at max speed, 4° C. for 10 minutes. Protein content was quantitated using the BCA method (Pierce #23225) and samples were normalized to total protein in Laemli buffer and heated at 100° C. for 10 minutes. SDS PAGE was run using a Bis-Tris gel system (Invitrogen NuPAGE) with MOPS buffer (Invitrogen NP0001), transferred onto nitrocellulose using the iBLOT system (Invitrogen) and blocked in PBS-T (0.1% Tween 20), 5% non-fat milk or BSA in guidance with primary Ab supplier requirements. All primary antibodies were incubated overnight at 4° C. in PBS-T (0.1% Tween 20) in either 5% non-fat milk or BSA, diluted to the following working dilutions: anti E Cadherin (Santa Cruz #sc-21791) 1:500 dilution; anti Vimentin (BD Biosciences #550513) 1:2000 dilution;); anti GAPDH HRP conjugate (Santa Cruz sc-25778) 1:1000 dilution; anti β-Actin (Sigma, A5441) 1:10,000 dilution. […]

Experiment [2] relates to CFPAC-1 cells. The experiment is described as follows: Cell morphology by light microscopy. Conditions: treated 7 days; versus untreated cells that formed colonies. On the procedure:
The CFPAC1 cell line was cultured in DMEM media (Gibco #11960) supplemented with 10% FBS (Sigma), 2 mM L Glutamine (Gibco), at 37° C., 5% CO2. For 7 day treatments, cells were seeded on tissue culture plastic in complete growth media and allowed to attach overnight at cell densities that would provide approximately 60-80% confluence at end of experiment. Ligand and/or inhibitor was added the following day (Day 0) in complete growth media and incubated at 37° C., 5% CO2. Ligand source and concentrations used are as follows: [1] From R&D systems, SDF-1α (stromal derived factor-1 alpha) at 100 ng/ml, TRANCE (TNF-related activation induced cytokine) at 50 ng/ml, FGF1 (fibroblast growth factor acidic) at 10 ng/ml, FGF2 (fibroblast growth factor basic) at 10 ng/ml, BMP4 (bone morphogenetic protein 4) at 100 ng/ml, BMP7 (bone morphogenetic protein 7) at 100 ng/ml, IGF2 (insulin-like growth factor 2) at 100 ng/ml, OSM (Oncostatin M) at 100 ng/ml, NRG1 (Neuregulin-1) at 50 ng/ml, PDGFaa (Platelet derived growth factor a) at 50 ng/ml, PDGFbb (platelet derive growth factor b) at 30 ng/ml, Ang2 (Angiopoeitin 2) at 400 ng/ml, amphiregulin at 100 ng/ml, HMGB 1 (Human high-mobility group box 1 protein) at 50 ng/ml; [2] […]

In experiment [3] the test system is CFPAC1 cells. Put plainly: Doubling time after ligand treatment. The settings on record: after 7 day ligand treatment, versus untreated. The protocol: Cells were plated and treated with ligand for 7 days. On day 7, cells were counted and re-plated on 6 cm cell culture dishes. On days 3, 5, 7, 10 and 12, cells were trypsinized and counted to determine the total number of cells in the dish, in duplicate. Doubling time was calculated using the multiple time point method on the website www.doubling-time.com.

For experiment [4], the system named is CFPAC1 cells. The experiment is described as follows: 2D immunofluorescence of E-cadherin and vimentin. The settings on record: cells treated 7 days with ligand, compared to untreated cells. The protocol:
Cells were plated on coverslips and stimulated with ligand the following day (day 0). On day 4, medium and ligands were refreshed. After 7 days, the cells were fixed in 4% paraformaldehyde (EMS#15701)/PBS (Gibco #14190) for 10 minutes at room temperature, and then permeabilized in 0.1% Triton X-100 (Sigma #P1379)/PBS for 10 minutes. Cells were blocked in 3% BSA/PBS for one hour and incubated in primary antibody solution (E-cadherin, Santa Cruz #sc21791 and Vimentin, Chemicon #AB5733 in blocking buffer) for two hours at room temperature. Cells were washed in PBS and incubated in secondary antibody (Invitrogen #A11029 and Chemicon #AP194R) for one hour followed by nuclear counterstain TO-PRO3 (Invitrogen #T3605). Coverslips were mounted on slides with Pro-Long Gold antifade reagent (Invitrogen P36934). Images were captured on a Leica DMRXE microcope with SP2 scanner using Leica Confocal Software.

As for “HGF: Hepatocyte Growth Factor from Peprotech, used at 100 ng/ml”, in the experiment with CFPAC-1 cells [1], the “Induction of EMT (E-cadherin down, vimentin up)” value is on record as “most complete EMT”. Further, in the experiment with CFPAC-1 cells [2], the Cell morphology entry was “less compact with more elongated cell morphology”. The “Effect on doubling time” value in the experiment with CFPAC1 cells [3] is given as “did not increase the doubling time”. The “E-cadherin and vimentin staining” value in the experiment on CFPAC1 cells [4] is on record as “strong vimentin staining with no E-cadherin”.

The values are drawn from US8642834B2, “Methods for the identification of agents that inhibit mesenchymal-like tumor cells or their formation” (OSI Pharmaceuticals, LLC, priority 2009, dated 2014).
